Test results: ChEMBL document CHEMBL1201862, “PubChem BioAssay data set” (2004)
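96-well plates; 48 h exposure; 5 concentrations. Endpoints by linear interpolation between flanking doses. Not reached: highest tested concentration assigned. GI50 is the concentration that inhibits growth by half.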 Calls of active or inactive are those of the source. Rule as the data show it: active = GI50 up to about 1.1 µM and inactive = higher.

What was measured:
Assay in all cases: NCI anticancer screen, dose series, 48 h
[1] = test system: DLD-1
[2] = test system: HT-29
[3] = test system: OVCAR-4
[4] = test system: SF-539
[5] = test system: SK-OV-3
[6] = test system: NCI-H522
[7] = test system: SNB-75
[8] = test system: U-251
[9] = test system: OVCAR-8
[10] = test system: A498
[11] = test system: SK-MEL-5
[12] = test system: DMS-273
[13] = test system: CAKI-1
[14] = test system: SK-MEL-28
[15] = test system: OVCAR-3
[16] = test system: Malme-3M
[17] = test system: ACHN
[18] = test system: NCI-H226
[19] = test system: HOP-92
[20] = test system: BT-549

Compound | GI50 [1] | GI50 [2] | GI50 [3] | GI50 [4] | GI50 [5] | GI50 [6] | GI50 [7] | GI50 [8] | GI50 [9] | GI50 [10] | GI50 [11] | GI50 [12] | GI50 [13] | GI50 [14] | GI50 [15] | GI50 [16] | GI50 [17] | GI50 [18] | GI50 [19] | GI50 [20]
CCOc1ccc(/N=N/c2ccc3oc(=O)c(C(=O)Nc4ccc(OC)cc4)cc3c2)cc1 | 8.32 µM (inactive) | 42.5 µM (inactive) | 7.1 µM (inactive) | 20.2 µM (inactive) | 41.9 µM (inactive) | 21.8 µM (inactive) | 33.7 µM (inactive) | 14.1 µM (inactive) | 12.7 µM (inactive) | 4.22 µM (inactive) | 15 µM (inactive) | 25.8 µM (inactive) | 11 µM (inactive) | 18.9 µM (inactive) | 19.5 µM (inactive) | 30.1 µM (inactive) |  |  |  | 
CC(=O)Oc1c(Br)ccc2cc(C(Br)Br)c(C(=O)c3ccccc3)nc12 | 24 µM (inactive) | 19.2 µM (inactive) | 5.01 µM (inactive) | 18.6 µM (inactive) |  | 4.21 µM (inactive) | 20.5 µM (inactive) | 19.2 µM (inactive) | 23.6 µM (inactive) |  | 19.1 µM (inactive) | 20.6 µM (inactive) | 3.78 µM (inactive) | 15.9 µM (inactive) | > 10 µM (inactive) | 24.9 µM (inactive) | 22.1 µM (inactive) | 19.7 µM (inactive) |  | 
O=C(O)CSc1nnc(-c2ccccc2)[nH]1 | > 100 µM (inactive) | > 100 µM (inactive) | > 100 µM (inactive) | > 100 µM (inactive) | > 100 µM (inactive) | > 100 µM (inactive) | 37.2 µM (inactive) | > 100 µM (inactive) | > 100 µM (inactive) | > 100 µM (inactive) | > 100 µM (inactive) | > 100 µM (inactive) | > 100 µM (inactive) | > 100 µM (inactive) | > 100 µM (inactive) | > 100 µM (inactive) | > 100 µM (inactive) | > 100 µM (inactive) |  | 
C(/C=C/N1CCCC1)=C\c1nc(N2CCCC2)c2ccccc2n1 | 18.7 µM (inactive) | 20.7 µM (inactive) | 13.9 µM (inactive) | 18.3 µM (inactive) | 18.6 µM (inactive) |  | 16.6 µM (inactive) |  | 34.1 µM (inactive) | > 100 µM (inactive) | 19.1 µM (inactive) | 18.4 µM (inactive) | 19.7 µM (inactive) | 22.9 µM (inactive) | 15.7 µM (inactive) | 18.3 µM (inactive) | 16.9 µM (inactive) | 16.7 µM (inactive) |  | 
Oc1nc(S)nc2c1CCCN2 | > 100 µM (inactive) | > 100 µM (inactive) |  |  | > 100 µM (inactive) | > 100 µM (inactive) | > 100 µM (inactive) | > 100 µM (inactive) | > 100 µM (inactive) |  | > 100 µM (inactive) |  | > 100 µM (inactive) | > 100 µM (inactive) | > 100 µM (inactive) | > 100 µM (inactive) | > 100 µM (inactive) |  | > 100 µM (inactive) | 
CC(=O)Nc1ccc(C(=O)NN2C(=O)C(Cl)C2c2ccc(Cl)cc2)cc1 (stereo not drawn) | > 100 µM (inactive) | > 100 µM (inactive) | > 100 µM (inactive) | 21.6 µM (inactive) | 25.4 µM (inactive) | 38.8 µM (inactive) | 16.1 µM (inactive) | 23.9 µM (inactive) | 37 µM (inactive) |  | > 100 µM (inactive) |  |  | 52.5 µM (inactive) | 18.8 µM (inactive) | > 42.9 µM (inactive) | > 57.5 µM (inactive) | > 57.4 µM (inactive) | 26.1 µM (inactive) | 72.6 µM (inactive)
C=C(C)C1CC[C@]2(C(=O)O)CCC3(C)[C@H](CCC4[C@@]5(C)CC[C@H](OC6OC(CO)C(O)C6OC6OC(C)C(O)C(O)C6O)[C@@](C)(CO)C5CC[C@]43C)C12 (stereo partly drawn) | 33.9 µM (inactive) | > 100 µM (inactive) | > 100 µM (inactive) | > 100 µM (inactive) |  | 88.1 µM (inactive) | > 100 µM (inactive) | > 100 µM (inactive) | > 100 µM (inactive) |  | > 100 µM (inactive) | > 100 µM (inactive) |  | > 100 µM (inactive) | > 100 µM (inactive) |  | > 100 µM (inactive) | > 100 µM (inactive) |  | 
C1OCC2S[C@@H]3COCO[C@@H]3C2O1 (stereo partly drawn) | > 100 µM (inactive) | > 100 µM (inactive) | > 100 µM (inactive) | > 100 µM (inactive) | > 100 µM (inactive) | > 100 µM (inactive) | > 100 µM (inactive) | > 100 µM (inactive) | > 100 µM (inactive) | > 100 µM (inactive) | > 100 µM (inactive) | > 100 µM (inactive) | > 100 µM (inactive) | > 100 µM (inactive) | > 100 µM (inactive) | > 100 µM (inactive) | > 100 µM (inactive) | > 100 µM (inactive) |  | 
O=C(c1ccccc1)c1ccc2[nH]c(-c3c(Cl)c(Cl)c(Cl)c(Cl)c3-c3nnc(-c4ccccc4)o3)nc2c1 |  | 31.3 µM (inactive) | 20.7 µM (inactive) | 19.4 µM (inactive) | 50.8 µM (inactive) | 6.28 µM (inactive) | 8.81 µM (inactive) | 31.6 µM (inactive) | 58.1 µM (inactive) | 12.1 µM (inactive) | 6.7 µM (inactive) |  | 40.4 µM (inactive) | > 100 µM (inactive) | 13.8 µM (inactive) | 17.9 µM (inactive) | 69.7 µM (inactive) | 22.8 µM (inactive) | 35.7 µM (inactive) | 46 µM (inactive)
COc1cc2c3c(cc(Cl)nc3c1OC)C(O)(CC(C)=O)C(=O)N2 (stereo not drawn) |  | > 45.7 µM (inactive) | 17.8 µM (inactive) | > 100 µM (inactive) | > 47.1 µM (inactive) | 8.97 µM (inactive) | 38.6 µM (inactive) | 57.8 µM (inactive) | 18.5 µM (inactive) | 18.3 µM (inactive) | > 41 µM (inactive) |  | 22.1 µM (inactive) | > 45.4 µM (inactive) | 33 µM (inactive) | 15.9 µM (inactive) | 24.9 µM (inactive) | > 42.3 µM (inactive) | 19.1 µM (inactive) | 16.8 µM (inactive)
Cc1nc2c(o1)C(=O)c1ccccc1/C2=N/c1ccc(N2CCOCC2)cc1 |  | 24.8 µM (inactive) | 2.99 µM (inactive) | 2.49 µM (inactive) | 37.8 µM (inactive) | 2.48 µM (inactive) | 2.46 µM (inactive) | 3.52 µM (inactive) | 2.81 µM (inactive) | 18.7 µM (inactive) | 1.79 µM (inactive) |  | 13.2 µM (inactive) | 3.15 µM (inactive) | 1.69 µM (inactive) | 1.74 µM (inactive) | 3.61 µM (inactive) | 20.5 µM (inactive) | 10.7 µM (inactive) | 2.12 µM (inactive)
CCOC(=O)c1ccc(-c2cccs2)[nH]1 |  | 54 µM (inactive) | 31.6 µM (inactive) | > 100 µM (inactive) | > 62.7 µM (inactive) | 32.7 µM (inactive) | > 100 µM (inactive) | > 76.4 µM (inactive) | > 55.5 µM (inactive) | > 55.5 µM (inactive) | 30.8 µM (inactive) |  | > 92.5 µM (inactive) | > 80.5 µM (inactive) | 59.8 µM (inactive) | 63.4 µM (inactive) | 78.9 µM (inactive) | > 100 µM (inactive) | 12.1 µM (inactive) | > 63.1 µM (inactive)
CNC(=S)NN=C1NCCCCN1 |  | > 100 µM (inactive) | > 100 µM (inactive) | > 100 µM (inactive) | > 100 µM (inactive) | > 100 µM (inactive) | > 100 µM (inactive) | > 100 µM (inactive) | > 100 µM (inactive) | > 100 µM (inactive) | > 100 µM (inactive) |  | 29.2 µM (inactive) | > 100 µM (inactive) | > 100 µM (inactive) | > 100 µM (inactive) | > 100 µM (inactive) | > 100 µM (inactive) | > 100 µM (inactive) | > 100 µM (inactive)
COc1cc(/C=N/c2nc3cc4sc(/N=C/c5cc(OC)c(OC)c(OC)c5)nc4cc3s2)cc(OC)c1OC |  | 52.7 µM (inactive) | > 100 µM (inactive) | 17.9 µM (inactive) | > 100 µM (inactive) | 45.8 µM (inactive) | 75 µM (inactive) | 46.1 µM (inactive) | 95.5 µM (inactive) | > 100 µM (inactive) | 37.1 µM (inactive) |  | > 100 µM (inactive) | 21.7 µM (inactive) | 32.7 µM (inactive) | > 100 µM (inactive) | > 100 µM (inactive) | 31.4 µM (inactive) | > 100 µM (inactive) | > 100 µM (inactive)
NC(Cc1nnn[nH]1)C(=O)O (stereo not drawn) |  | > 100 µM (inactive) | > 100 µM (inactive) | > 100 µM (inactive) | > 100 µM (inactive) | > 100 µM (inactive) | > 100 µM (inactive) | > 100 µM (inactive) | > 100 µM (inactive) | > 100 µM (inactive) | > 100 µM (inactive) |  | > 100 µM (inactive) | > 100 µM (inactive) | > 100 µM (inactive) | > 100 µM (inactive) | > 100 µM (inactive) | > 100 µM (inactive) | > 100 µM (inactive) | > 100 µM (inactive)
C=C1C(=O)O[C@@H]2C[C@@H]3[C@]4(CC[C@]5(C)[C@@H]([C@H](C)CC/C=C(\C)C=O)CC[C@@]35C)C[C@]4(CCC(=O)OC)[C@H]12 |  | 4.39 µM (inactive) | 1.7 µM (inactive) | 2 µM (inactive) | 3.52 µM (inactive) | 3.09 µM (inactive) | 2.4 µM (inactive) | 1.38 µM (inactive) | 1.12 µM (active) | 2.79 µM (inactive) | 0.83 µM (active) |  | 3.26 µM (inactive) | 2 µM (inactive) | 1.62 µM (inactive) | 1.59 µM (inactive) | 2.06 µM (inactive) | 3.4 µM (inactive) | 1.94 µM (inactive) | 2.03 µM (inactive)
